Test results taken from US7138361B2, “Herbicidal heterocycles” (E. I. du Pont de Nemours and Company, priority 2000, dated 2006).

Key:
Type in all cases: in vivo
[1] = tested on: barnyardgrass (Echinochloa crus-galli); test: Test B flooded paddy test; settings: Rate 1000 g/ha, scale of 0 to 100 where 0 is no effect and 100 is complete control, visually evaluated after 13 to 15 days
Outline: (§1)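 Rice, smallflower flatsedge, duck salad and barnyardgrass grown to 2-leaf stage in flooded paddy and treated with test chemicals. Plants kept in greenhouse 13 to 15 days, then visually rated against controls. Scale 0 (no effect) to 100 (complete control).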

[2] = tested on: duck salad (Heteranthera limosa); test: Test B flooded paddy test; settings: Rate 1000 g/ha, scale of 0 to 100 where 0 is no effect and 100 is complete control, visually evaluated after 13 to 15 days
Outline: as §1

rice (Oryza saliva) = test: Test B flooded paddy test; settings: Rate 1000 g/ha, scale of 0 to 100 where 0 is no effect and 100 is complete control, visually evaluated after 13 to 15 days
Outline: as §1

[3] = tested on: smallflower flatsedge (Cyperus difformis); test: Test B flooded paddy test; settings: Rate 1000 g/ha, scale of 0 to 100 where 0 is no effect and 100 is complete control, visually evaluated after 13 to 15 days
Outline: as §1

[4] = tested on: crabgrass (Digitaria sanguinalis); test: Test C preemergence; settings: for Plant response rating (0 to 100), Crabgrass: Rate 250 g/ha, visual evaluation after 12 to 14 days
Outline: (§2)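 Compounds in non-phytotoxic solvent with surfactant applied preemergence to planted seeds and postemergence to plants at 1- to 4-leaf stage (2–18 cm). Kept in greenhouse 12–14 days, then visually rated against controls on a 0 (no effect) to 100 (complete control) scale.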

[5] = tested on: goosegrass (Eleusine indica); test: Test C preemergence; settings: for Plant response rating (0 to 100), Goosegrass: Rate 250 g/ha, visual evaluation after 12 to 14 days
Outline: as §2

[6] = tested on: morningglory (Ipomoea hederacea); test: Test C preemergence; settings: for Plant response rating (0 to 100), Morningglory: Rate 250 g/ha, visual evaluation after 12 to 14 days
Outline: as §2

[7] = tested on: yellow nutsedge (Cyperus esculentus); test: Test C preemergence; settings: for Plant response rating (0 to 100), Nutsedge: Rate 250 g/ha, visual evaluation after 12 to 14 days
Outline: as §2

[8] = Preemergence, Rate 500 g/ha, scale 0 to 100
[9] = Rate 62 g/ha, scale 0 to 100, 0 no effect, 100 complete control
[10] = preemergence, Rate 125 g/ha, scale 0 to 100, 0 no effect, 100 complete control

| SMILES | Plant response rating, Barnyardgrass [1] | Plant response rating, Ducksalad [2] | Plant response rating, Rice (rice (Oryza saliva)) | Plant response rating, Flatsedge [3] | Plant response rating, Crabgrass [4, 8] | Plant response rating, Crabgrass [4, 9] | Plant response rating (0 to 100), Crabgrass ([4]; preemergence) | Plant response rating, Crabgrass [4, 10] | Plant response rating, Goosegrass [5, 8] | Plant response rating, Goosegrass [5, 9] | Plant response rating (0 to 100), Goosegrass ([5]; preemergence) | Plant response rating, Goosegrass [5, 10] | Plant response rating, Morningglory [6, 8] | Plant response rating (0 to 100), Morningglory ([6]; preemergence) | Plant response rating, Morningglory [6, 10] | Plant response rating, Nutsedge [7, 8] | Plant response rating, Nutsedge [7, 9] | Plant response rating (0 to 100), Nutsedge ([7]; preemergence) | Plant response rating, Nutsedge [7, 10] | Plant response rating, Morningglory [6, 9] | other results |
| --- | --- | --- | --- | --- | --- | --- | --- | --- | --- | --- | --- | --- | --- | --- | --- | --- | --- | --- | --- | --- | --- |
| O=C1C(n2ccc(C3CCCCC3)n2)SCN1c1cccc(C(F)(F)F)c1 (stereo not shown) [Compound 52] | 100 | 100 | 50 | 100 | 100 | 90 | 100 | 100 | 100 | 90 | 100 | 90 | 30 | 0 | 0 | 40 | 0 | 20 | 0 |  |  |
| CCC(C)c1ccn(C2SCN(c3cccc(OC(F)(F)F)c3)C2=O)n1 (stereo not shown) [Compound 32] | 100 | 100 | 100 | 100 | 100 | 100 | 100 | 100 | 100 | 100 | 100 | 100 | 80 | 50 | 40 | 60 |  | 50 | 50 | 30 |  |
| COc1cc(N2CCC(n3ccc(C(C)(C)C)n3)C2=O)ccc1C (stereo not shown) [Compound 42] | 100 | 100 | 100 | 100 |  | 90 |  | 100 |  |  |  |  |  |  |  |  |  |  |  |  | Plant response rating, Crabgrass ([4]; preemergence, Rate 31 g/ha, scale 0 to 100): 40 |
| CC(C)c1ccn(C2SCN(c3cccc(OC(F)(F)F)c3)C2=O)n1 (stereo not shown) [Compound 31] | 100 | 100 | 90 | 100 | 100 | 100 | 100 | 100 | 100 | 100 | 100 | 100 | 50 | 40 | 30 | 90 | 40 | 70 | 50 | 30 |  |
| O=C1C(n2ccc(C3CCCCC3)n2)SCN1c1cccc(OC(F)(F)F)c1 (stereo not shown) [Compound 50] | 100 | 100 | 60 | 100 | 100 | 100 | 100 | 100 | 100 | 80 | 100 | 90 | 30 | 30 | 30 | 70 | 0 | 0 | 0 | 20 |  |
